According to patent publication US11999759B2, “Boronic acid derivatives and therapeutic uses thereof” (Qpex Biopharma, Inc., priority 2016, dated 2024):

Key:
CTX-M-14 = CTX-M-14 (Escherichia coli, UniProt Q9L5C7); assay: Inhibition of nitrocefin cleavage by purified CTX-M-14; format: biochemical; details: nitrocefin reporter substrate; 10 min preincubation at room temperature; read-out: Ki (CTX-M-14, NCF)
Description: (§1) Ki values of inhibition of purified class A, C and D enzymes were determined spectrophotometrically using nitrocefin as reporter substrate. Purified enzymes were mixed with various concentrations of inhibitors in reaction buffer and incubated for 10 min at room temperature. Nitrocefin was added and substrate cleavage profiles were recorded at 490 nm every 10 sec for 10 min.

KPC-2 = KPC-2 (Klebsiella pneumoniae, UniProt Q9F663); assay: Inhibition of nitrocefin cleavage by purified KPC-2; format: biochemical; details: nitrocefin reporter substrate; 10 min preincubation at room temperature; read-out: Ki (KPC-2, NCF)
Description: as §1, with “min. These experiments confirmed that the described compounds are inhibitors with a broad-spectrum of activity towards various β-lactamases.” for “min.”

P99 = P99 (Enterobacter cloacae, UniProt P05364); assay: biochemical; details: nitrocefin reporter substrate; 10 min preincubation at room temperature; read-out: Ki (P99, NCF)
Description: as §1

Pa-AmpC = Pa-AmpC (Pseudomonas aeruginosa, UniProt P24735); assay: biochemical; details: nitrocefin reporter substrate; 10 min preincubation at room temperature; read-out: Ki (Pa-AmpC, NCF)
Description: as §1

OXA-48 = OXA-48 (Klebsiella pneumoniae, UniProt Q6XEC0); assay: Inhibition of nitrocefin cleavage by purified OXA-48; format: biochemical; details: nitrocefin reporter substrate; 10 min preincubation at room temperature; read-out: Ki (OXA-48, NCF)
Description: as §1, with “min. These experiments confirmed that the described compounds are inhibitors with a broad-spectrum of activity towards various β-lactamases.” for “min.”

OXA-23 = OXA-23 (Acinetobacter baumannii, UniProt Q9L4P2); assay: Inhibition of nitrocefin cleavage by purified OXA-23; format: biochemical; details: nitrocefin reporter substrate; 10 min preincubation at room temperature; read-out: Ki (OXA-23, NCF)
Description: as §1, with “min. These experiments confirmed that the described compounds are inhibitors with a broad-spectrum of activity towards various β-lactamases.” for “min.”

VIM-1 = VIM-1 (Pseudomonas aeruginosa, UniProt A0A0F7KYQ8); assay: Inhibition of nitrocefin cleavage by purified VIM-1; format: biochemical; details: nitrocefin reporter substrate; 10 min preincubation at room temperature; read-out: Ki (VIM-1, NCF)
NDM-1 = NDM-1 (Klebsiella pneumoniae, UniProt C7C422); assay: Inhibition of imipenem cleavage by purified NDM-1; format: biochemical; details: imipenem reporter substrate; 37° C.; read-out: Ki (NDM-1, IMI)
Description: Purified enzymes were mixed with various concentrations of inhibitors in reaction buffer and incubated for 10 min at room temperature. Imipenem was added and substrate cleavage profiles were recorded at 294 nm every 30 seconds for 30 minutes at 37° C.

IMP-1 = IMP-1 (Serratia marcescens, UniProt P52699); assay: Inhibition of imipenem cleavage by purified IMP-1; format: biochemical; details: imipenem reporter substrate; 37° C.; read-out: Ki (IMP-1, IMI)
Description: Ki values of inhibition of purified class B enzymes NDM-1 and IMP-1 were determined spectrophotometrically using imipenem as reporter substrate. Purified enzymes were mixed with various concentrations of inhibitors in reaction buffer and incubated for 10 min at room temperature. Imipenem was added and substrate cleavage profiles were recorded at 294 nm every 30 seconds for 30 minutes at 37° C. These experiments further confirmed that the described compounds have the ability to inhibit carbapenemase activity of metallo-beta-lactamases.

[1] = system: PAM1032/KPC-2 (overexpressed MexAB-OprM); assay: Biapenem potentiation (MPC64) in PAM1032/KPC-2; format: cell-based, Pseudomonas aeruginosa; parameters: PAM1032/KPC-2 Biapenem MPC64: unit not given here; details: BLI potency to decrease biapenem MIC 64-fold, from 32 to 0.5 μg/ml; efflux proficient strain
Description: (§2) Efflux of BLIs from Pseudomonas aeruginosa by the MexAB-OprM efflux pump was also evaluated. The plasmid expressing the gene encoding KPC-2 was introduced into two strains of P. aeruginosa, PAM1032 and PAM1154 that overexpressed or lacked MexAB-OprM, respectively. Due to expression of KPC-2 both strains became resistant to biapenem. […] Potency of BLIs to potentiate biapenem in these strains was determined. […] The ratio of MPC64 values for each BLI in PAM1032/KPC-2 (efflux proficient) and PAM1154/KPC-2 (efflux deficient) was determined to generate the Efflux Index (EI) as shown in Table 8.

[2] = system: PAM1154/KPC-2 (lacked MexAB-OprM); assay: Biapenem potentiation (MPC64) in PAM1154/KPC-2; format: cell-based, Pseudomonas aeruginosa; parameters: PAM1154/KPC-2 Biapenem MPC64: unit not given here; details: BLI potency to decrease biapenem MIC 64-fold, from 32 to 0.5 μg/ml; efflux deficient strain
Description: as §2

Chain of IMP-1 (P52699 19-246, looked up, species assumed): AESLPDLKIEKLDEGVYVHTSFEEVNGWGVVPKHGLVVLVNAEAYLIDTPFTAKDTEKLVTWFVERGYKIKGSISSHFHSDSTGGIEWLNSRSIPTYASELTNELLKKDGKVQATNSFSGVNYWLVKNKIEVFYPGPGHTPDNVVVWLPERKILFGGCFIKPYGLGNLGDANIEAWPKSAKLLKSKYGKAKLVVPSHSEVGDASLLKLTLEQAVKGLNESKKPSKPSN
Chain of KPC-2 (Q9F663 25-293 limits assumed): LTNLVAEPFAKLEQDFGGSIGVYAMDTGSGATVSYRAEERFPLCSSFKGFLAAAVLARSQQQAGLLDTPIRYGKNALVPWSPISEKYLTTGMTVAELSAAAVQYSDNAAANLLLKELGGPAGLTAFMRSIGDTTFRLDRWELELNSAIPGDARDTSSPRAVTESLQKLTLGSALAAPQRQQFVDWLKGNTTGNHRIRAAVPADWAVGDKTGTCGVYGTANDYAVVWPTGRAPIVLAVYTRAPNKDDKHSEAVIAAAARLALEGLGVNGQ
Chain of P99 (P05364 21-381): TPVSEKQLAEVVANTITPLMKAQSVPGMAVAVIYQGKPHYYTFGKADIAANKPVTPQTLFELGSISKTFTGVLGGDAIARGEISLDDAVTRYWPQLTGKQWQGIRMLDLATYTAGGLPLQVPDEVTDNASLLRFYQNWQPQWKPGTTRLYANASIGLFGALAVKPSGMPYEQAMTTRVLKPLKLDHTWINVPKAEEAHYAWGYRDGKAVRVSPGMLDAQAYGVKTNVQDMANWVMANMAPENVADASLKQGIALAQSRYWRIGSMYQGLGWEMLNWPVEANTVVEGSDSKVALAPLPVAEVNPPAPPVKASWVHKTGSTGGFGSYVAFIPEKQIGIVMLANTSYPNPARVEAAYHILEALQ
Chain of OXA-48 (Q6XEC0 23-265, looked up): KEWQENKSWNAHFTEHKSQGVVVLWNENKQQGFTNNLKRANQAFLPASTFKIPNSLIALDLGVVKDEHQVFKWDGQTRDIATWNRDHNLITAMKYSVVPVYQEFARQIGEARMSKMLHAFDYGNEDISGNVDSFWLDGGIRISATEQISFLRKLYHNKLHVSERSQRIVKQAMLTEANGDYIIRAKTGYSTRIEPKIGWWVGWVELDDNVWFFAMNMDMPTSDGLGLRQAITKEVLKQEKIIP
Chain of Pa-AmpC (P24735 27-397): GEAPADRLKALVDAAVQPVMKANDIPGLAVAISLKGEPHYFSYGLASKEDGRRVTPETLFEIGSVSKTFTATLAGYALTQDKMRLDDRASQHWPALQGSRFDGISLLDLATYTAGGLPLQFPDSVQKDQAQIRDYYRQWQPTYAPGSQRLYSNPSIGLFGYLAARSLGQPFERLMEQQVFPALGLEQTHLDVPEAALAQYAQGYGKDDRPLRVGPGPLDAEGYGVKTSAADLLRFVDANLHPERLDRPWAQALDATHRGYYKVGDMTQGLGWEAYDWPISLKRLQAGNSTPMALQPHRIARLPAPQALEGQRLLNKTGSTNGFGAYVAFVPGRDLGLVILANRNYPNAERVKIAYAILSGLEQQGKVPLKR
Chain of OXA-23 (Q9L4P2 18-273): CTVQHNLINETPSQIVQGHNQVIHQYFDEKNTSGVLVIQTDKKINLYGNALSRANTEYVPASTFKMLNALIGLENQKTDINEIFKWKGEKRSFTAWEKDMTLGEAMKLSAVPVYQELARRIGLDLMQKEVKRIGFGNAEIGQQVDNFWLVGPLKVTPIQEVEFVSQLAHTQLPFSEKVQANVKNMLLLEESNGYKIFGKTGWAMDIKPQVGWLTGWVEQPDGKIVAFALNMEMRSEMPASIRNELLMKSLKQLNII
Chain of NDM-1 (C7C422 29-270, looked up, species assumed): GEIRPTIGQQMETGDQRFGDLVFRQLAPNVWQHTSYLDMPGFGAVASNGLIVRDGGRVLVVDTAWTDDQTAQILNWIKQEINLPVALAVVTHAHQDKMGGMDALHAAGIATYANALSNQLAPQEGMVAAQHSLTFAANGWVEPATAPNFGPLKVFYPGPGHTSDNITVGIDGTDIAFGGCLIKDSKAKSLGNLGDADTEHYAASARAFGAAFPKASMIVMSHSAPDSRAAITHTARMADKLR
Chain of CTX-M-14 (Q9L5C7 29-291, species assumed): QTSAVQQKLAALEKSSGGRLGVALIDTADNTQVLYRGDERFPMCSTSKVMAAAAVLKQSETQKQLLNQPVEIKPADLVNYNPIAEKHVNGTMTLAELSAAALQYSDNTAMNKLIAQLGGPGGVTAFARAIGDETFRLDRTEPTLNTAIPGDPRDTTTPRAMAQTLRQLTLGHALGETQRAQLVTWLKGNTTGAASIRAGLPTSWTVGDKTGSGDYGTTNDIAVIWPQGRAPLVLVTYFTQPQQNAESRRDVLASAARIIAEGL

Row | Compound | Ki (CTX-M-14) | Ki (KPC-2) | Ki (P99) | Ki (Pa-AmpC) | Ki (OXA-48) | Ki (OXA-23) | Ki (VIM-1) | Ki (NDM-1) | Ki (IMP-1) | PAM1032/KPC-2 Biapenem MPC64 [1] | PAM1154/KPC-2 Biapenem MPC64 [2]
1 | COc1ccc2c(c1C(=O)O)OB(O)C1C2C1(F)F (stereo not shown) [Compound 5, 1,1-Difluoro-2-hydroxy-5-methoxy-1a,7b-dihydrocyclopropa[c][1,2]benzoxaborinine-4-carboxylic acid] | < 100 nM | < 100 nM | 100 to 1000 nM | > 1000 nM | < 100 nM | < 100 nM | > 1000 nM | 100 to 1000 nM | > 1000 nM | 20 | 10
2 | O=C(O)c1c(F)c(F)cc2c1OB(O)C1CC21 (stereo not shown) [Compound 19, 5,6-difluoro-2,2-dihydroxy-1a,7b-dihydro-1H-cyclopropa[c][1,2]benzoxaborinine-4-carboxylic acid] | < 100 nM | < 100 nM | < 100 nM | < 100 nM | < 100 nM | < 100 nM | < 100 nM | 100 to 1000 nM | > 1000 nM | 5 | 1.25
3 | O=C(O)c1c(F)ccc2c1OB(O)CC21CC1 [Compound 15, 8-fluoro-4,4-dihydroxy-spiro[5-oxa-4-boranuidabicyclo[4.4.0]deca-1(6),7,9-triene-2,1′-cyclopropane]-7-carboxylic acid] | < 100 nM | < 100 nM | < 100 nM | < 100 nM | < 100 nM | < 100 nM | > 1000 nM | 100 to 1000 nM | > 1000 nM | 5 | 1.25
4 | COc1ccc2c(c1C(=O)O)OB(O)C1(CO)CC21 (stereo not shown) [Compound 22, 2,2-dihydroxy-1a-(hydroxymethyl)-5-methoxy-1,7b-dihydrocyclopropa[c][1,2]benzoxaborinine-4-carboxylic acid] | < 100 nM | < 100 nM | < 100 nM | < 100 nM | < 100 nM | > 1000 nM | < 100 nM | < 100 nM | < 100 nM | 20 | 10
5 | O=C(O)c1cccc2c1OB(O)CC21CC1 [Compound 14, 4,4-dihydroxyspiro[5-oxa-4-boranuidabicyclo[4.4.0]deca-1(6),7,9-triene-2,1′-cyclopropane]-7-carboxylic acid] | < 100 nM | < 100 nM | < 100 nM | < 100 nM | < 100 nM | < 100 nM | > 1000 nM | < 100 nM | > 1000 nM | 40 | 1.25
6 | O=C(O)c1cccc2c1OB(O)[C@@H]1C[C@H]21 [Compound 16, (1aR,7bS)-2,2-dihydroxy-1a,7b-dihydro-1H-cyclopropa[c][1,2]benzoxaborinine-4-carboxylic acid] | < 100 nM | < 100 nM | < 100 nM | < 100 nM | < 100 nM | < 100 nM | < 100 nM | < 100 nM | < 100 nM | 1.25 | 0.3
7 | O=C(O)c1c(OCCF)ccc2c1OB(O)C1CC21 (stereo not shown) [Compound 17, 5-(2-fluoroethoxy)-2,2-dihydroxy-1a,7b-dihydro-1H-cyclopropa[c][1,2]benzoxaborinine-4-carboxylic acid] | < 100 nM | < 100 nM | < 100 nM | < 100 nM | < 100 nM | < 100 nM | < 100 nM | < 100 nM | < 100 nM | 20 | 5
8 | COc1ccc2c(c1C(=O)O)OB(O)C1CC21 (stereo not shown) [Compound 1, 2-Hydroxy-5-methoxy-1a,7b-dihydro-1H-cyclopropa[c][1,2]benzoxaborinine-4-carboxylic acid] | < 100 nM | < 100 nM | < 100 nM | < 100 nM | < 100 nM | < 100 nM | < 100 nM | < 100 nM | < 100 nM | 2.5 | 1.25
9 | O=C(O)c1cccc2c1OB(O)[C@H]1C[C@@H]21 [Compound 18, (1aS,7bR)-2,2-dihydroxy-1a,7b-dihydro-1H-cyclopropa[c][1,2]benzoxaborinine-4-carboxylic acid] | < 100 nM | < 100 nM | 100 to 1000 nM | 100 to 1000 nM | < 100 nM | 100 to 1000 nM | 100 to 1000 nM | < 100 nM | > 1000 nM | 5 | 0.3
10 | COc1ccc2c(c1C(=O)O)OB(O)[C@@H]1COC[C@H]21 [Compound 23, (3aS,9bS)-4,4-dihydroxy-7-methoxy-1,3,3a,9b-tetrahydrofuro[3,4-c][1,2]benzoxaborinine-6-carboxylic acid] | < 100 nM | < 100 nM | < 100 nM | 100 to 1000 nM | < 100 nM | < 100 nM | 100 to 1000 nM | < 100 nM | > 1000 nM | 20 | 20
11 | COc1ccc2c(c1C(=O)O)OB(O)[C@@H]1C[C@H]21 [Compound 3, (1aR,7bS)-2-hydroxy-5-methoxy-1a,7b-dihydro-1H-cyclopropa[c][1,2]benzoxaborinine-4-carboxylic acid] | < 100 nM | < 100 nM | < 100 nM | < 100 nM | < 100 nM | < 100 nM | < 100 nM | < 100 nM | < 100 nM | 5 | 2.5
